According to US10167262B2, “Herbicidal substituted 3-arylpyrazoles” (FMC CORPORATION, priority 2014, dated 2019):
Like-named read-outs stand apart in the source and are kept apart here.

Legend:
Assay type in all cases: in vivo
wild oat (Avena fatua) = experiment: Test C postemergence greenhouse test, plant response rating 0-100; conditions: Avena fatua, post-emergence
How it was run: (§1)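 Postemergence spray of formulated test chemicals on plants 2 to 18 cm tall (1- to 4-leaf stage) grown in peat/vermiculite medium. Greenhouse hold 13 to 15 days, then visual comparison with untreated controls on a 0-100 scale (0 no effect, 100 complete control); dash means no test result.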

[1] = test system: chickweed (common chickweed, Stellaria media); experiment: as above; conditions: Stellaria media, post-emergence
How it was run: as §1

kochia (Kochia scoparia) = experiment: as above; conditions: Bassia scoparia, post-emergence
How it was run: as §1

[2] = test system: lambsquarters (Chenopodium album); experiment: Test C pre-/postemergence greenhouse test, plant response rating 0-100; conditions: Chenopodium album; for pest or weed control at 62 g/ha: 62 g ai/ha; for pest or weed control at 125 g/ha: 125 g ai/ha; for pest or weed control at 250 g/ha: 250 g ai/ha; for pest or weed control at 500 g/ha: 500 g ai/ha
How it was run: (§2)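 Greenhouse test. Preemergence: seed in loam:sand, sprayed with formulated chemical (solvent + surfactant). Postemergence: 1–4 leaf plants, 2–18 cm, peat-based potting medium. Hold 13–15 d; score visually, 0 (none) to 100 (complete control); dash = not tested.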

[3] = test system: large (Lg) crabgrass (Digitaria sanguinalis); experiment: as above; conditions: Digitaria sanguinalis; for pest or weed control at 62 g/ha: 62 g ai/ha; for pest or weed control at 125 g/ha: 125 g ai/ha; for pest or weed control at 250 g/ha: 250 g ai/ha; for pest or weed control at 500 g/ha: 500 g ai/ha
How it was run: as §2

[4] = test system: winter wheat (Triticum aestivum); experiment: as above; conditions: Triticum aestivum; for plant injury at 62 g/ha: 62 g ai/ha; for plant injury at 125 g/ha: 125 g ai/ha; for plant injury at 250 g/ha: 250 g ai/ha; for plant injury at 500 g/ha: 500 g ai/ha
How it was run: as §2

[5] = test system: blackgrass (Alopecurus myosuroides); experiment: as above; conditions: Alopecurus myosuroides; for pest or weed control at 62 g/ha: 62 g ai/ha; for pest or weed control at 125 g/ha: 125 g ai/ha; for pest or weed control at 250 g/ha: 250 g ai/ha; for pest or weed control at 500 g/ha: 500 g ai/ha
How it was run: as §2

[6] = test system: johnsongrass (Sorghum halepense); experiment: as above; conditions: Sorghum halepense; for pest or weed control at 62 g/ha: 62 g ai/ha; for pest or weed control at 125 g/ha: 125 g ai/ha; for pest or weed control at 250 g/ha: 250 g ai/ha; for pest or weed control at 500 g/ha: 500 g ai/ha
How it was run: as §2

corn (Zea mays) = experiment: as above; conditions: Zea mays, pre-emergence, Preemergence
How it was run: as §2

[7] = test system: yellow nutsedge (Cyperus esculentus); experiment: as above; conditions: Cyperus; for pest or weed control at 62 g/ha: 62 g ai/ha; for pest or weed control at 125 g/ha: 125 g ai/ha; for pest or weed control at 250 g/ha: 250 g ai/ha; for pest or weed control at 500 g/ha: 500 g ai/ha
How it was run: as §2

soybean (Glycine max) = experiment: as above; conditions: Glycine max; for plant injury at 62 g/ha: 62 g ai/ha; for plant injury at 125 g/ha: 125 g ai/ha; for plant injury at 250 g/ha: 250 g ai/ha; for plant injury at 500 g/ha: 500 g ai/ha
How it was run: as §2

[8] = test system: pigweed (Amaranthus retroflexus); experiment: as above; conditions: Amaranthus retroflexus; for pest or weed control at 62 g/ha: 62 g ai/ha; for pest or weed control at 250 g/ha: 250 g ai/ha; for pest or weed control at 500 g/ha: 500 g ai/ha
How it was run: as §2

[9] = test system: giant foxtail (Setaria faberii); experiment: as above; conditions: Setaria faberi; for pest or weed control at 62 g/ha: 62 g ai/ha; for pest or weed control at 125 g/ha: 125 g ai/ha; for pest or weed control at 250 g/ha: 250 g ai/ha; for pest or weed control at 500 g/ha: 500 g ai/ha
How it was run: as §2

[10] = test system: oilseed rape (Brassica napus); experiment: as above; conditions: Preemergence
How it was run: as §2

[11] = post-emergence, Postemergence, read-out: Plant response rating (0 to 100), Lambsquarters
[12] = post-emergence, Postemergence, scale 0 to 100
[13] = pre-emergence, Preemergence, read-out: Plant response rating, Lambsquarters
[14] = post-emergence, Postemergence, read-out: Plant response rating (0 to 100), Crabgrass, Large
[15] = pre-emergence, Preemergence, read-out: Plant response rating, Crabgrass, Large
[16] = post-emergence, Postemergence, read-out: Plant response rating (0 to 100), Wheat
[17] = pre-emergence, Preemergence, read-out: Plant response rating, Wheat
[18] = post-emergence, Postemergence, read-out: Plant response rating (0 to 100), Blackgrass
[19] = pre-emergence, Preemergence, read-out: Plant response rating, Blackgrass
[20] = post-emergence, Postemergence, read-out: Plant response rating (0 to 100), Johnsongrass
[21] = pre-emergence, Preemergence, read-out: Plant response rating, Johnsongrass
[22] = post-emergence, Postemergence, read-out: Plant response rating (0 to 100), Nutsedge, Yellow
[23] = pre-emergence, Preemergence, read-out: Plant response rating, Nutsedge, Yellow
[24] = post-emergence, Postemergence, read-out: Plant response rating (0 to 100), Soybean
[25] = pre-emergence, Preemergence, read-out: Plant response rating, Soybean
[26] = post-emergence, Postemergence, read-out: Plant response rating (0 to 100), Foxtail, Giant
[27] = pre-emergence, Preemergence, read-out: Plant response rating, Foxtail, Giant

C#CCn1cc(C(=O)c2ccccc2)c(-c2cc(Cl)cc(Cl)c2)n1 [Compound 39, [3-(3,5-dichlorophenyl)-1-(2-propyn-1-yl)-1H-pyrazol-4-yl]phenylmethanone] gave a pest or weed control at 62 g/ha (wild oat (Avena fatua); 62 g ai/ha) of 0%, a pest or weed control at 125 g/ha (wild oat (Avena fatua); 125 g ai/ha) of 0% and a pest or weed control at 250 g/ha (wild oat (Avena fatua); 250 g ai/ha, scale 0 to 100) of 0%. The pest or weed control at 500 g/ha (wild oat (Avena fatua); 500 g ai/ha, scale 0 to 100) was 5%, the pest or weed control at 62 g/ha ([1]; 62 g ai/ha) was 98% and the pest or weed control at 125 g/ha ([1]; 125 g ai/ha) was 98%. For the same compound, the pest or weed control at 250 g/ha ([1]; 250 g ai/ha, scale 0 to 100) was 100%, the pest or weed control at 500 g/ha ([1]; 500 g ai/ha, scale 0 to 100) was 100% and the pest or weed control at 62 g/ha (kochia (Kochia scoparia); 62 g ai/ha) was 15%. The pest or weed control at 125 g/ha (kochia (Kochia scoparia); 125 g ai/ha) was 40%, the pest or weed control at 250 g/ha (kochia (Kochia scoparia); 250 g ai/ha, scale 0 to 100) was 55% and the pest or weed control at 500 g/ha (kochia (Kochia scoparia); 500 g ai/ha, scale 0 to 100) was 80%. For the same compound, the pest or weed control at 62 g/ha [2, 11] was 80%, the pest or weed control at 125 g/ha [2, 11] was 80% and the pest or weed control at 250 g/ha [2, 12] was 100%. The pest or weed control at 500 g/ha [2, 12] was 100%, the pest or weed control at 62 g/ha [2, 13] was 30% and the pest or weed control at 125 g/ha [2, 13] was 100%. It also gave a pest or weed control at 250 g/ha ([2]; pre-emergence, Preemergence) of 100%, a pest or weed control at 500 g/ha ([2]; pre-emergence, Preemergence) of 100% and a pest or weed control at 62 g/ha [3, 14] of 0%. The pest or weed control at 125 g/ha [3, 14] was 0%, the pest or weed control at 250 g/ha [3, 12] was 5% and the pest or weed control at 500 g/ha [3, 12] was 15%. It also gave a pest or weed control at 62 g/ha [3, 15] of 0%, a pest or weed control at 125 g/ha [3, 15] of 0% and a pest or weed control at 250 g/ha ([3]; pre-emergence, Preemergence) of 0%. It also gave a pest or weed control at 500 g/ha ([3]; pre-emergence, Preemergence) of 0%, a plant injury at 62 g/ha [4, 16] of 0% and a plant injury at 125 g/ha [4, 16] of 0%. The plant injury at 250 g/ha [4, 12] was 0%, the plant injury at 500 g/ha [4, 12] was 0% and the plant injury at 62 g/ha [4, 17] was 0%. It also gave a plant injury at 125 g/ha [4, 17] of 0%, a plant injury at 250 g/ha ([4]; pre-emergence, Preemergence) of 0% and a plant injury at 500 g/ha ([4]; pre-emergence, Preemergence) of 0%. The pest or weed control at 62 g/ha [5, 18] was 0%, the pest or weed control at 125 g/ha [5, 18] was 0% and the pest or weed control at 250 g/ha [5, 12] was 0%. It also gave a pest or weed control at 500 g/ha [5, 12] of 0%, a pest or weed control at 62 g/ha [5, 19] of 0% and a pest or weed control at 125 g/ha [5, 19] of 0%. It also gave a pest or weed control at 250 g/ha ([5]; pre-emergence, Preemergence) of 0%, a pest or weed control at 500 g/ha ([5]; pre-emergence, Preemergence) of 0% and a pest or weed control at 62 g/ha [6, 20] of 0%. It also gave a pest or weed control at 125 g/ha [6, 20] of 0%, a pest or weed control at 250 g/ha [6, 12] of 5% and a pest or weed control at 500 g/ha [6, 12] of 5%. It also gave a pest or weed control at 62 g/ha [6, 21] of 0%, a pest or weed control at 125 g/ha [6, 21] of 0% and a pest or weed control at 250 g/ha ([6]; pre-emergence, Preemergence) of 0%. For the same compound, the pest or weed control at 500 g/ha ([6]; pre-emergence, Preemergence) was 0%, the Corn plant response rating (crop injury, 0 = no effect, 100 = complete kill) at 62 g/ha (corn (Zea mays); 62 g ai/ha) was 0% and the Corn plant response rating (crop injury, 0 = no effect, 100 = complete kill) at 125 g/ha (corn (Zea mays); 125 g ai/ha) was 0%. The Corn plant response rating (crop injury, 0 = no effect, 100 = complete kill) at 250 g/ha (corn (Zea mays); 250 g ai/ha) was 0%, the pest or weed control at 62 g/ha [7, 22] was 0% and the pest or weed control at 125 g/ha [7, 22] was 0%. It also gave a pest or weed control at 250 g/ha [7, 12] of 0%, a pest or weed control at 500 g/ha [7, 12] of 5% and a pest or weed control at 62 g/ha [7, 23] of 0%. The pest or weed control at 125 g/ha [7, 23] was 0%, the pest or weed control at 250 g/ha ([7]; pre-emergence, Preemergence) was 0% and the pest or weed control at 500 g/ha ([7]; pre-emergence, Preemergence) was 0%. For the same compound, the plant injury at 62 g/ha (soybean (Glycine max); [24]) was 0%, the plant injury at 125 g/ha (soybean (Glycine max); [24]) was 0% and the plant injury at 250 g/ha (soybean (Glycine max); [12]) was 0%. The plant injury at 500 g/ha (soybean (Glycine max); [12]) was 0%, the plant injury at 62 g/ha (soybean (Glycine max); [25]) was 0% and the plant injury at 125 g/ha (soybean (Glycine max); [25]) was 0%. It also gave a plant injury at 250 g/ha (soybean (Glycine max); pre-emergence, Preemergence) of 0%, a plant injury at 500 g/ha (soybean (Glycine max); pre-emergence, Preemergence) of 0% and a pest or weed control at 62 g/ha ([8]; post-emergence, Postemergence, read-out: Plant response rating (0 to 100), Pigweed) of 90%. For the same compound, the pest or weed control at 250 g/ha [8, 12] was 98%, the pest or weed control at 500 g/ha [8, 12] was 98% and the pest or weed control at 62 g/ha ([8]; pre-emergence, Preemergence, read-out: Plant response rating, Pigweed) was 45%. For the same compound, the pest or weed control at 125 g/ha ([8]; pre-emergence, Preemergence, 125 g ai/ha, read-out: Plant response rating, Pigweed) was 75%, the pest or weed control at 250 g/ha ([8]; pre-emergence, Preemergence) was 85% and the pest or weed control at 500 g/ha ([8]; pre-emergence, Preemergence) was 95%. The pest or weed control at 62 g/ha [9, 26] was 0%, the pest or weed control at 125 g/ha [9, 26] was 0% and the pest or weed control at 250 g/ha [9, 12] was 0%. The pest or weed control at 500 g/ha [9, 12] was 0%, the pest or weed control at 62 g/ha [9, 27] was 0% and the pest or weed control at 125 g/ha [9, 27] was 0%. The pest or weed control at 250 g/ha ([9]; pre-emergence, Preemergence) was 0%, the pest or weed control at 500 g/ha ([9]; pre-emergence, Preemergence) was 0% and the “Plant response rating, Oilseed Rape” value ([10]; 62 g ai/ha) was 0. For the same compound, the “Plant response rating, Oilseed Rape” value ([10]; 125 g ai/ha) was 30, the “Plant response rating, Oilseed Rape” value ([10]; 250 g ai/ha) was 50 and the “Plant response rating, Oilseed Rape” value ([10]; 500 g ai/ha) was 80.
